Consider one compound from paper PMC3475717, “A Spiroligomer α-Helix Mimic That Binds HDM2, Penetrates Human Cells and Stabilizes HDM2 in Cell Culture” (PLoS ONE, 2012).

Entries after “also recorded” stand apart in the source; their conditions may differ.

One test concerns the target T1, HDMX (Homo sapiens, UniProt O15151).
T1 sequence (O15151 1-490): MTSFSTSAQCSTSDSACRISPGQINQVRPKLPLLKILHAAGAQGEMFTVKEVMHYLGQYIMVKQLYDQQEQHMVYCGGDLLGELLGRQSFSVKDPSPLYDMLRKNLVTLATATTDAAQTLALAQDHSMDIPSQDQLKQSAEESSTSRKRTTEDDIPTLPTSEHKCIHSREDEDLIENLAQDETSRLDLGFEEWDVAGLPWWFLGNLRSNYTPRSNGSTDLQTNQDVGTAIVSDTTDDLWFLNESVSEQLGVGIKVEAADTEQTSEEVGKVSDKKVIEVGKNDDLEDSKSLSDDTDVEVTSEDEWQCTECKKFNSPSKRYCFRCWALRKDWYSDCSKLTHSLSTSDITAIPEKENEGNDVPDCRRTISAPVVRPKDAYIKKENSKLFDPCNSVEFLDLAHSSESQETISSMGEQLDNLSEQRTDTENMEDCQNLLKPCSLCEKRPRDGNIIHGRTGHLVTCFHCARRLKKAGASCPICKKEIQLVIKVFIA
In words: binding experiments with HDMX.

The subject of test [1] is HDM2, p53Y220C and p21 in Huh7 cells. In words: Western blot analysis of HDM2, p53 and p21. Format: cell-based, human. The protocol:
Huh7 cells were incubated with spiroligomer 1 and Nutlin-3 in media at 2, 5, 10 and 20 µM for 17 hours at 37°C. […] Huh7 cells were then incubated with 1 at 15 µM and cells were harvested at 2, 4, 6, 8, 12 and 24 hours. […]
Cell Culture and Treatment. HepG2 (expressing wild-type p53) and Huh7 (expressing mutant p53) cell lines were purchased from the American Type Culture Collection (ATCC) and cultured as monolayers in Dulbecco’s modified Eagle’s medium (DMEM) (Invitrogen) supplemented with 100 mM nonessential amino acid solution, 100 mM sodium pyruvate, 100 U/mL penicillin, 100 μg/mL streptomycin, and 10% heat inactivated fetal bovine serum (FBS) (all from Hyclone).
Cells were maintained at 37° C and 5% CO2 and were treated with media that contained 0.5%
FBS. Nutlin-3 (Sigma) was dissolved in 0.01% DMSO (Sigma).
Both nutlin-3 and spiroligomers were added into the medium for final concentrations of 2 µM, 5 µM, 10 µM and 20 µM for 24 hours. For the western blot experiments detailed below, the time length for incubation with bis-peptide was 17 hours. […]
Western Blotting. For protein extraction, cells were lysed in cell lysis buffer (Cell Signaling) with a protease inhibitor cocktail for 20 minutes on ice. Protein extracts (50 μg) were separated by SDS-PAGE electrophoresis, transferred to nitrocellulose membranes (Schleicher & Schuell), and incubated overnight with primary antibodies to p53, HDM2, p21, and β-actin (all from Santa Cruz Biotechnology). The blots were developed using ECL plus detection system (Amersham Biosciences) and exposed to Kodak imaging films (Kodak BioMax). Images were quantified using ImageJ software (NIH).
Figure S.5. Detection of bis-peptide 1 and Nutlin-3 in HepG2 (left) and Huh7 (right) cells. The concentration of each compound is given in μM and the three proteins (HDM2, p53 and p21) bands are […]
On the technique in general: A western blot detects proteins with antibodies after separation by electrophoresis.

The mark [2] stands for this setting: Huh7, 2, 5, 10 and 20 µM, 17 hours, 37°C.

The Kd is the free concentration of one partner at which half of the binding sites on the other are occupied at equilibrium, for simple one-to-one binding. In the case of `CC(C)CN1C(=O)[C@@H]2C[C@@]3(CN2C(=O)[C@@]12C[C@H]1C(=O)N(Cc4ccc(Cl)c(Cl)c4)[C@]4(C[C@@H]5C(=O)N[C@@H](CCc6ccccc6)C(=O)N5C4)C(=O)N1C2)NC(=O)[C@@H](CCCCNC(=S)Nc1ccc2c(c1)C(=O)OC21c2ccc(O)cc2Oc2cc(O)ccc21)NC3=O` [Compound 1], the “selectivity HDM2 versus HDMX” value on HDMX (Kd HDM2 0.4 µM versus Kd HDMX 19 µM) was “selective for HDM2”. On HDMX (data not shown), this compound yielded a Kd of 19 µM. In addition, in test [1] (Huh7, 15 µM, harvested at 2, 4, 6, 8, 12 and 24 hours), the “p53Y220C levels with time” value is “no change in p53Y220C levels with time; also recorded: no effect on p53Y220C levels”. In test [1] (setting [2]), the p21 levels entry is “did not change” and the p53Y220C levels result is recorded as “did not change”. For the same compound, the “HDM2 levels relative to control cells” value in test [1] (Huh7, 2, 5, 10 and 20 µM, 17 hours, 37°C, dose-dependent) is on record as “more than 30 fold”.
